Where “and” joins values, the source holds several entries; their conditions need not be identical. Equal values may be shown once. Read-outs that look alike come from different tables or passages of the source.
Assays:
[1] = Example 1: peak plasma methylnaltrexone level (HPLC); assay type: in vivo, human
Experimental: (§1) After each test drug administration, seven blood samples (5 ml each) were obtained at time 0, 5, 30 min, and 1, 2, 4, 8 h, and three urine samples were collected at time 0, 2, and 4 h. Plasma and urine methylnaltrexone levels were determined by an HPLC technique with a detection limit of 2 ng/ml (Kim et al., 1989; Yuan et al., Clin. Pharmacol Ther., 59:469-475 (1996); both herein incorporated by reference). […] Subjects' bowel movements were witnessed and recorded by a research nurse.

[2] = intravenous; cited from earlier work
[3] = Example 4: pharmacokinetics of 0.45 mg/kg intravenous methylnaltrexone; details: per subject (1-12) and Mean ± SD
Experimental: Sessions were separated by at least 1 week. Each session lasted approximately 7 hours, and the subjects received one of three injections: (1) placebo plus placebo, (2) placebo plus 0.05 mg/kg morphine, or (3) 0.45 mg/kg methylnaltrexone plus 0.05 mg/kg morphine. Injection I was given at the first session, and the subjects were blinded to the medication. Injections 2 and 3 were given in a random order, and the subjects and observers were blinded to the medication. Injection assignments were prepared by random selection on a computer and were sealed in envelopes.

[4] = system: normal volunteers; details: eight normal volunteers, cited from earlier work
[5] = system: chronic methadone subjects; assay: Example 3: oral methylnaltrexone, oral-cecal transit time; assay type: in vivo, human
Experimental: The oral-cecal transit time was assessed by the pulmonary hydrogen (H2) measurement technique, which measures pulmonary H2 that is produced when unabsorbed lactulose is fermented by colonic bacteria and excreted in the breath. This H2 production is reflected by a concomitant increase in breath H2 excretion. […] Dis. Sci., 32:829-832 (1987)). Hydrogen breath tests were conducted every 15 min until oral-cecal transit time was determined.
Twelve constipated adults (≦2 stool/week) were enrolled. […] Drug administrations were single-blinded to the subject.

[6] = system: chronic methadone subjects; assay: Example 2: side effects, vital signs and opioid withdrawal; assay type: in vivo, human
Experimental: Vital signs were obtained at 0, 5, 10, 30, 60, 90 and 120 min after each test drug administration. Illicit drug use was monitored by random urine drug screens.
To evaluate possible opioid withdrawal with methylnaltrexone, before and 10 min after the completion of test drug administration, subjects were asked to complete an objective checklist of withdrawal symptoms modified from Fraser et al. (J. Pharmacol Exp. Ther., 133:371-387 (1961)) and Jasinski (Drug Addiction J., 197-258 (1977)). Items rated (none, mild, moderate, severe) were yawning, lacrimation (excessive tearing), rhinorrhea (nasal discharge), perspiration, tremor, piloerection (goosebumps), and restlessness. The ratings for individual items were translated to a 0-3 scale and summed to give a total symptom score. The total scores before and after test drug administrations were compared between the groups. Potential opioid withdrawal symptoms were also monitored by an investigator throughout the study.

[7] = system: chronic methadone subjects with methadone-induced constipation; assay: Example 1: intravenous methylnaltrexone, laxation response and stool frequency in methadone maintenance subjects; assay type: in vivo, human; details: for Stool frequency Methylnaltrexone (per day): during iv methylnaltrexone treatment
Experimental: Methylnaltrexone dose of 0.45 mg/kg was chosen to start this trial because this dose was previously given in normal volunteers and prevented opioid-induced delay of the oral-cecal transit time without any side effects (Yuan et al., Clin. Pharmacol Ther., 59:469-475 (1996)). Drug administration was performed single blind to the subjects in this pilot study. Thus, methylnaltrexone dose could be adjusted based on subjects' clinical response during the study.
All four subjects received placebo (normal saline) on Day 1. Thereafter, subjects received intravenous methylnaltrexone until the end of the study.
On Day 2 at 09:00 hours (h), Subjects 1 and 2 were given 0.45 mg/kg intravenous methylnaltrexone over 1 min. Subject 2 experienced severe abdominal cramps after receiving the compound and was withdrawn from the study. […] Beginning on Day 4, the study was resumed for Subject 1 using 0.45 mg/kg of methylnaltrexone, diluted with 50 ml normal saline and administered over 30 min. Infusion could be stopped at any time for complaints of abdominal pain.
For Subjects 3 and 4, the study was shortened from 8 to 5 days, methylnaltrexone dosage was decreased, and a new, three-step dosing procedure was established. Methylnaltrexone 0.05 mg/kg, mixed in 30 ml normal saline (first syringe), was infused intravenously over 10 min. The subject was then observed 10 min for drug response. If there was no response, then methylnaltrexone 0.1 mg/kg (second syringe), mixed in 30 ml normal saline, was infused over 15 min. Subject was observed 15 min for drug response. If there was no response, then methylnaltrexone 0.3 mg/kg (third syringe), mixed in 30 ml normal saline, was infused over 15 min.
as §1

[8] = Example 3: plasma level after oral methylnaltrexone
Experimental: Since oral medication is a safer and more convenient way to deliver drugs than is intravenous administration, the efficacy of oral MNTX in relieving constipation in methadone maintained patients was evaluated. Twelve constipated adults (≦2 stool/week) were enrolled. Their daily methadone dose was 73.3±16.2 mg (41-100 mg), mean±SD (range). On day 1 at 9AM, subjects ingested 10 g lactulose (Solvay Pharmaceuticals) to assess oral-cecal transit time as described above, and a placebo capsule. On day 2 at 9AM, subjects again received lactulose, and a capsule containing methylnaltrexone (Mallinckrodt). Ascending oral methylnaltrexone doses (0.3, 1.0, and 3,0 mg/kg) were given to 3 groups of 4 subjects per group. Drug administrations were single-blinded to the subject. Laxation response and potential opioid withdrawal were recorded and blood samples were collected.

Structure (SMILES): C[N@+]1(CC2CC2)CC[C@]23c4c5ccc(O)c4O[C@H]2C(=O)CC[C@@]3(O)[C@H]1C5 [methylnaltrexone, N-methylnaltrexone bromide]
- Peak plasma methylnaltrexone level ([1]; Subject 1, 0.45 mg/kg iv): 1.65 µg/mL
- Peak plasma methylnaltrexone level ([1]; Subject 2, 0.45 mg/kg iv): 1.10 µg/mL
- Peak plasma methylnaltrexone level ([1]; Subject 3, 0.05-0.15 mg/kg iv): 0.25 µg/mL
- Peak plasma methylnaltrexone level ([1]; Subject 4, 0.05-0.15 mg/kg iv): 0.53 µg/mL
- elimination half-life [2]: approximately 2 h
- AUC ([3]; human, in vivo, iv, 0.45 mg/kg, AUC, area under the plasma concentration-time curve from 0 to 6 hours): 549 ng·h/mL
- AUC, area under the plasma concentration-time curve from 0 to 6 hours [3]: 694 ng·h/mL and 595 ng·h/mL and 637 ng·h/mL and 588 ng·h/mL and 1013 ng·h/mL and 634 ng·h/mL and 587 ng·h/mL and 747 ng·h/mL and 677 ng·h/mL and 742 ng·h/mL and 658 ng·h/mL
- CL, total body clearance [3]: 51.7 L/h and 61.6 L/h and 41.6 L/h and 62.2 L/h and 68.1 L/h and 28.4 L/h and 73.2 L/h and 43.0 L/h and 45.2 L/h and 46.5 L/h and 47.8 L/h and 60.1 L/h
- Cmax, peak free plasma concentration [3]: 2111 ng/mL and 4309 ng/mL and 1921 ng/mL and 2418 ng/mL and 5471 ng/mL and 4076 ng/mL and 3443 ng/mL and 2993 ng/mL and 3059 ng/mL and 3119 ng/mL and 4033 ng/mL and 2640 ng/mL
- Fu, percentage of dose excreted unchanged in urine from 0 to 3 hours [3]: 33.8% and 36.5% and 43.5% and 26.6% and 49.6% and 73.4% and 44.4% and 46.0% and 39.5% and 40.4% and 35.1% and 34.0%
- t1/2β, terminal half-life [3]: 124.6 min and 162.6 min and 203.1 min and 238.1 min and 84.9 min and 93.5 min and 114.2 min and 151.8 min and 112.5 min and 106.3 min and 95.8 min and 87.5 min
- side effects ([4]; doses of 0.64 to 1.25 mg/kg): transient orthostatic hypotension
- side effects ([4]; doses up to 0.32 mg/kg): did not cause side effects
- reduction in oral-cecal transit time ([5]; methadone subjects, dose of 3.0 mg/kg (FIG. 5)): greater than 35%
- dose-related reduction of oral-cecal transit times ([5]; oral 0.3, 1.0, 3.0 mg/kg, p<0.05, Spearman rank correlation and linear regression): significant dose-response effect
- abdominal cramping during and immediately after injection ([6]; all subjects of methylnaltrexone group, iv): mild to moderate abdominal cramping
- change in blood pressure or heart rate from baseline ([6]; study drug infusion): No subject demonstrated any clinically significant change
- Laxation response ([7]; Subjects 1 and 2, 0.45 mg/kg iv): immediate positive Taxation
- Laxation response ([7]; Subjects 3 and 4, 0.05-0.15 mg/kg iv twice daily for 4 consecutive days): immediate laxation response
- Stool frequency Methylnaltrexone (per day) ([7]; #1 0.45 mg/kg bid, #2 0.45 mg/kg, #3 and #4 0.05-0.15 mg/kg bid, iv methylnaltrexone 0.45 mg/kg): 1 per day
- Stool frequency Methylnaltrexone (per day) ([7]; #1 0.45 mg/kg bid, #2 0.45 mg/kg, #3 and #4 0.05-0.15 mg/kg bid, iv methylnaltrexone 0.05-0.15, bid mg/kg): 2 per day
- Stool frequency Methylnaltrexone (per day) ([7]; #1 0.45 mg/kg bid, #2 0.45 mg/kg, #3 and #4 0.05-0.15 mg/kg bid, iv methylnaltrexone 0.05-015, bid mg/kg): 1.3 per day
- Stool frequency Methylnaltrexone (per day) ([7]; #1 0.45 mg/kg bid, #2 0.45 mg/kg, #3 and #4 0.05-0.15 mg/kg bid, iv methylnaltrexone 0.45, bid mg/kg): 1.5 per day
- stool frequency during the treatment period ([7]; four subjects, iv methylnaltrexone, 1-2 times per week before the study): approximately 1.5 stool per day
- Laxation response ([7]; iv methylnaltrexone, #1 0.45 mg/kg bid, #2 0.45 mg/kg, #3 and #4 0.05-0.15 mg/kg bid): Immediate
- Peak plasma level ([8]; 4 subjects with detectable level (one 1.0 mg/kg, three 3.0 mg/kg oral), mean±SD, range 10-26): 17.8 ± 6.6 ng/mL
- subjects with undetectable methylnaltrexone in plasma ([8]; of 12 subjects, oral 0.3-3.0 mg/kg): Eight
